The text below walks through data of patent US20040137436A1, “Method for measuring drug resistance” (priority 2000, published 2004).

Read-outs that look alike come from different tables or passages of the source.

In the assay the test system is HIV-1. In kind it is cell-based. The following applies: for Geometric Mean Phenotype: fold change in IC50 vs wild type; for Average Phenotype (log): log fold resistance.
Where [1] appears, read: RT codon 41 ANY, 184 ANY, 215 ANY.
Setting [2] is: RT codon 41 WT, 184 V/I, 215 F/Y.
[3] abbreviates: RT codon 41 WT, 184 V/I, 215 WT.
Setting [4] is: RT codon 41 WT, 184 WT, 215 F/Y.

`Cc1cn([C@H]2C[C@H](N=[N+]=[N-])[C@@H](CO)O2)c(=O)[nH]c1=O` [AZT, zidovudine]: the “effect of inclusion of the 184V mutation on magnitude of AZT resistance” value (184V together with AZT resistance mutations, each cluster (FIG. 7)) is listed as “substantial reduction”. The “Geometric Mean Phenotype” value reads like this: under setting [1], 3.9 fold; (RT codon 41 L, 184 WT, 215 F/Y) 27.7 fold; (RT codon 41 L, 184 WT, 215 WT) 1.7 fold; under setting [2], 6.2 fold; under setting [3], 1.3 fold; under setting [4], 13.4 fold. The “Geometric Mean Phenotype” value (RT codon 41 WT, 184 WT, 215 WT) came out at 1.3 fold. The “mean fold resistance, increase” value (genetic clusters with multiple mutations conferring AZT resistance (FIG. 7)) is given as approximately 100 fold. The “Average Phenotype (log)” value stood at 0.59 under setting [1]; 1.44 (RT codon 41 L, 184 WT, 215 F/Y); 0.24 (RT codon 41 L, 184 WT, 215 WT); 0.79 under setting [2]; 0.10 under setting [3]; 1.13 under setting [4]. Moreover, the “Average Phenotype (log)” value (RT codon 41 WT, 184 WT, 215 WT) was found to be 0.12. Also, where the note is “virus harbouring the 184V mutation (FIG. 7)”, the “susceptibility profile of genetic cluster” value is “slightly reduced level of susceptibility”.
